{
  "source": "patent US9272027B1",
  "about": "(priority 2014, dated 2016)",
  "system": "F. tularensis Schu4",
  "assay": "microbe, parasite or virus in culture",
  "format": "cell-based",
  "details": "Francisella tularensis, SCHU4, 44 h, read-out: IC50 of F. tularensis Schu4 growth inhibition",
  "data": [
    {"smiles": "O=CN(O)CCCP(=O)(O)O", "note": "[fosmidomycin]", "values": [
      {"measurement": "IC50", "value": 5, "unit": "µM"}
    ]}
  ]
}
